Assay [1] concerns the target Recombinant human cathepsin C/DPP1. Put plainly: Inhibition effect test of DPP1 enzyme activity. The following applies: recombinant human cathepsin C/DPP1, Gly-Arg-AMC substrate 12.5 μM, 25° C. 60 minutes; read-out: IC50, inhibitory activity on DPP1 enzyme. The class given is biochemical. The method, then: Experimental Example 1: Inhibition Effect Test of DPP1 Enzyme Activity
Recombinant human cathepsin C/DPP1 was purchased from R&D Systems;
Recombinant human cathepsin L (rhCathepsin L) was purchased from R&D Systems;
Gly-Arg-AMC (hydrochloride) was purchased from CAYMAN CHEMICAL COMPANY.
1× activation buffer: 5 mM DTT 0.01% (V/V) Triton X-100 (preparation for current use);
1× assay buffer: 50 mM NaCl 5 mM DTT 0.01% (V/V) Triton X-100 (preparation for current use);
1× activation buffer was used to dilute recombinant human cathepsin C/DPP1 enzyme and recombinant human cathepsin L (rhCathepsin L) enzyme to concentrations of 2 ng/μL and 0.4 ng/μL, respectively; equal volume of two working solutions of enzyme was taken, mixed well and incubated at 25° C. for 60 minutes;
the compounds to be tested were 5-fold diluted with a multi-channel pipette to the 8th concentration, i.e., diluted from 1 mM to 12.8 nM. Then 1× experimental buffer was used to dilute each compound to be tested by gradient into a 4% DMSO working solution. The working solution was added to corresponding wells for 5 μL/well, and duplicate experiment was set. The mixture was centrifuged at 1000 rpm for 1 minute;
5 μL/well of the enzyme mixture after incubation was taken and added to the white microwell plate. At this time, the amount of DPP1 enzyme in each well was 5 ng; 1× experimental buffer in 5 μL/well was added to the blank control well;
Gly-Arg-AMC (hydrochloride) was diluted to 25 μM with 1× assay buffer. The diluted mixture in 10 μL/well was added to a white microwell plate. The substrate concentration was 12.5 μM at this time, and the microplate was centrifuged in a centrifuge at 1000 rpm for 1 minute. […] After centrifugation, the microplate was covered with membrane and incubated at 25° C. for 60 minutes;
after incubation, fluorescence detection was performed using a multi-label analyzer with an excitation wavelength of 360 nm and an emission wavelength of 460 nm.
Using the equation (Sample−Min)/(Max−Min)×100% to convert the raw data into enzyme activity, the IC50 value might be obtained by curve fitting with four parameters (obtained by “log (inhibitor) vs. response—Variable slope” mode in GraphPad Prism).
Max: Contains recombinant human cathepsin C/DPP1, recombinant human cathepsin L (rhCathepsin L), and Gly-Arg-AMC (hydrochloride)
Min: No recombinant human cathepsin C/DPP1 and recombinant human cathepsin L (rhCathepsin L)

The target in the next assay is DPP1 of U937 cells (Homo sapiens (Human), UniProt P53634). Put plainly: Activity test of inhibiting DPP1 in U937 cells. The class given is cell-based. As to conditions: Gly-Phe-AFC probe, read-out: IC50, inhibitory activity on DPP1 of U937 cells. The method, then: Experimental Example 2: Activity Test of Inhibiting DPP1 in U937 Cells
Experimental Materials: • 1) Experimental reagents and consumables
The cell plate was placed in a carbon dioxide incubator for 1 day; • (3) after incubation for 1 hour, 100 μM Gly-Phe-AFC probe solution was added thereto, that is, 60 mM Gly-Phe-AFC probe stock solution was diluted with culture medium to 500 μM working solution; the working solution in 10 μL per well was transferred into the cell plate, and the cell plate was incubated in a carbon dioxide incubator for 1 hour;
3) the plate was read, and the data were analyzed: • (1) plate reading: after the cell incubation was completed, the cell plate was taken out, and the plate was read on Victor Nivo.
Using the equation (Sample−Min)/(Max−Min)×100% to convert the raw data into inhibition rate, the IC50 value might be obtained by curve fitting with four parameters (obtained by “log (inhibitor) vs. response—Variable slope” mode in GraphPad Prism).

Chain of DPP1 of U937 cells (P53634 25-134): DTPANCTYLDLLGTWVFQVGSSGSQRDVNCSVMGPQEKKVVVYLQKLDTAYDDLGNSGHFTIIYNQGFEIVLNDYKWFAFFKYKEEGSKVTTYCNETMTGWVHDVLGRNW
Chain of DPP1 of U937 cells (P53634 231-394): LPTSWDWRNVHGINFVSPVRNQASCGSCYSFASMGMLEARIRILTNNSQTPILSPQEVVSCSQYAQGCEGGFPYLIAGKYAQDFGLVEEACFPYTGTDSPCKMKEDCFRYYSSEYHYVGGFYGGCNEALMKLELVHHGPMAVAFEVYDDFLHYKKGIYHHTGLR
Chain of DPP1 of U937 cells (P53634 395-463): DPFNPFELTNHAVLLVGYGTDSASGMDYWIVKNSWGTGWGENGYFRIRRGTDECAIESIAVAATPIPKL

As to `Cn1ncc2ccc(-c3ccc(C[C@@H](C#N)NC(=O)[C@@H]4CNCCCO4)cc3)cc21` [Compound 2], the IC50 (commonly the concentration that inhibits the measured activity by half) in assay [1] was determined as 26.8 nM; on DPP1 of U937 cells it was 8.95 nM. Taken in the same sequence, the figures for `Cn1nnc2ccc(-c3ccc(C[C@@H](C#N)NC(=O)[C@@H]4CNCCCO4)cc3)cc21` [Compound 4] were 10.8 nM and 1.32 nM. Taken in the same sequence, the figures for `CN1Cc2cc(-c3ccc(C[C@@H](C#N)NC(=O)[C@@H]4CNCCCO4)cc3)ccc2C1=O` [Compound 5] were 28.3 nM and 9.32 nM. In the case of `Cn1nnc2ccc(-c3ccc(C[C@@H](C#N)NC(=O)[C@@H]4CNCCCO4)c(F)c3)cc21` [Compound 7], the results for the IC50 (in assay [1]; on DPP1 of U937 cells) were 2.52 nM and 2.49 nM, respectively. For `CC(C)n1ncc2ccc(-c3ccc(C[C@@H](C#N)NC(=O)[C@@H]4CNCCCO4)cc3)cc21` [Compound 9], in assay [1], the IC50 was 14 nM. Regarding `CC(C)n1ncc2ccc(-c3ccc(C[C@@H](C#N)NC(=O)[C@@H]4CNCCCO4)c(F)c3)cc21` [Compound 10], the figures for the IC50 (in assay [1]; on DPP1 of U937 cells) were 4.39 nM and 8.53 nM, respectively. Consider `N#C[C@H](Cc1ccc(-c2ccc3cnn(C4CCOCC4)c3c2)cc1F)NC(=O)[C@@H]1CNCCCO1` [Compound 12], for which the values for the IC50 (in assay [1]; on DPP1 of U937 cells) were 2.38 nM and 1.81 nM, respectively. Turning to `N#C[C@H](Cc1ccc(-c2ccc3nccn3c2)cc1F)NC(=O)[C@@H]1CNCCCO1` [Compound 13], the results for the IC50 (in assay [1]; on DPP1 of U937 cells) were 20.4 nM and 6.33 nM, respectively. The corresponding values for `N#C[C@@H](Cc1ccc(-c2ccc3nccn3c2)cc1F)NC(=O)[C@@H]1CNCCCO1` [Compound 14] are 28.1 nM and 2.79 nM.

Regarding `CN1CCOc2ccc(-c3ccc(C[C@H](C#N)NC(=O)[C@@H]4CNCCCO4)c(F)c3)cc21` [Compound 15], the IC50 in assay [1] worked out at 3.65 nM.

In the case of `Cn1ncc2ccc(-c3ccc(C[C@H](C#N)NC(=O)[C@@H]4CNCCCO4)c(Cl)c3)cc21` [Compound 16], the IC50 in assay [1] stood at 9.18 nM. Still for that read-out and setting: the figure for `Cc1cc(-c2ccc3cnn(C)c3c2)ccc1C[C@H](C#N)NC(=O)[C@@H]1CNCCCO1` [Compound 17] is 22.5 nM. In the case of `Cn1nc(F)c2ccc(-c3ccc(C[C@H](C#N)NC(=O)[C@@H]4CNCCCO4)c(F)c3)cc21` [Compound 18], the values for the IC50 (in assay [1]; on DPP1 of U937 cells) were 1.23 nM and 5.43 nM, respectively. The corresponding values for `N#C[C@@H](Cc1ccc(-c2cc(F)c3cn[nH]c3c2)cc1F)NC(=O)[C@@H]1CNCCCO1` [Compound 19] are 4.55 nM and 8.7 nM. Consider `N#C[C@@H](Cc1ccc(-c2cnc3cc[nH]c3c2)cc1F)NC(=O)[C@@H]1CNCCCO1` [Compound 21], for which the concentration for half-maximal inhibition (IC50) in assay [1] came to 17.3 nM; on DPP1 of U937 cells, 9.27 nM. With `N#C[C@@H](Cc1ccc(-c2ccc3cnn(C4CCNCC4)c3c2)cc1F)NC(=O)[C@@H]1CNCCCO1` [Compound 22], the IC50 in assay [1] came to 0.76 nM. As for `CN1CCC(n2ncc3ccc(-c4ccc(C[C@H](C#N)NC(=O)[C@@H]5CNCCCO5)c(F)c4)cc32)CC1` [Compound 24], the IC50 in assay [1] stood at 1 nM; on DPP1 of U937 cells, 3.12 nM.
